From ChEMBL document CHEMBL1136125, “Comparative molecular field analysis (CoMFA) of phthalazine derivatives as phosphodiesterase IV inhibitors” (Bioorg Med Chem Lett, 2003) come the findings set out here.

The structures appear in SMILES notation.

In experiment [1] the target is T1, Phosphodiesterase 4 (Homo sapiens, UniProt P27815+Q08499+Q07343+Q08493). Briefly: In vitro inhibitory concentration against phosphodiesterase 4. It is filed as protein assay.
For experiment [2], the target named is T1, Phosphodiesterase 4. The experiment is described as follows: Inhibitory concentration against phosphodiesterase 4. It is filed as protein assay.

With `CCc1nnc(Cc2c(Cl)cncc2Cl)c2cc(OC3CCCC3)c(OC)cc12`, the IC50 – broadly, the concentration needed to halve the response being measured – in experiment [1] stood at 0.075 µM. The “Log IC50” value in experiment [2] was -7.12.

For the compound `COc1ccc2c(Cc3c(Cl)cncc3Cl)nncc2c1OCCCCCc1ccccc1`, the “Log IC50” value in experiment [2] was -7.25.

In turn, `COc1cc2c(C)nnc(Cc3c(Cl)cncc3Cl)c2cc1OC1CCCC1` registered an IC50 in experiment [1] of 0.146 µM. Further, the “Log IC50” value in experiment [2] is on record as -6.84.

In turn, `COc1ccc2c(Cc3c(Cl)cncc3Cl)nncc2c1OC1CCCO1` (stereo unspecified) yielded a half-inhibitory concentration (IC50) in experiment [1] of 0.153 µM.
